Reference: paper PMC10982999, “Structure-Guided Design and Optimization of Covalent VHL-Targeted Sulfonyl Fluoride PROTACs” (Journal of Medicinal Chemistry, 2024)

Molecular target: T1, VHL in HEK293T cells (Homo sapiens, UniProt P40337)
T1 construct: endogenous in cells; host or cells: HEK293T
Assay: Gel-based competition pull-down assay from live cells
Format: cell-based
Details: HEK293T cells pretreated 2 h at 37 °C; lysate treated with VHL-SF2-Biotin 50 μM 2 h
Procedure: Figure 2 (A) Structure of VHL-SF2. […] (E) Competition pull-down assay from live cells between VHL-SF2-Biotin and VHL-SF2. HEK293T cells were pretreated with DMSO or varying concentrations of VHL-SF2 for 2 h at 37 °C. The cells were lysed and treated with DMSO or VHL-SF2-Biotin (50 μM) for 2 h at room temperature. A pull-down with streptavidin beads was conducted, after which the protein was resolved on SDS/PAGE. VHL and loading control GAPDH levels were visualized by Western blotting.
Initially, we subjected VHL-SF2-Biotin to the streptavidin shift assay and observed a greater extent of VHL modification (44%) than for VHL-SF1-Biotin under the same conditions (Figure S2). […] Intact LC–MS analysis confirmed single labeling of VHL by VHL-SF2, with 65% conversion at 24 h (Figure S5). Although we attempted several site ID identification experiments by digesting the labeled recombinant VHL, the Ser110-containing peptide was not detected in the samples treated with VHL-SF2. This observation is consistent with a change in peptide properties that is incompatible with mass spectrometry detection compared to untreated samples (Table S2). […]
VCB (11.1 mg/ mL) was diluted with PBS pH 7.4 (2 µg/ mL). […] 10 µL of each sample was loaded onto the gel and the bands were quantified […]

## Cc1cc([C@H](C(=O)N2C[C@H](S(=O)(=O)F)C[C@H]2C(=O)N[C@@H](CC(=O)OC(C)(C)C)c2ccc(-c3scnc3C)cc2)C(C)C)on1 [VHL-SF2, tert-Butyl (S)-3-((2S,4R)-4-(Fluorosulfonyl)-1-((R)-3-methyl-2-(3-methylisoxazol-5-yl)butanoyl)pyrr-olidine-2-carboxamido)-3-(4-(4-methylthiazol-5-yl)phenyl)propanoate]
  pull-down of VHL by VHL-SF2-Biotin after compound pretreatment: dose-dependently competed
